The values that follow come from patent US20220235032A1 (GENFLEET THERAPEUTICS (SHANGHAI) INC., priority 2019, published 2022).

For this test, the system named is U937 cells. The experiment in a line: Inhibitory activity against programmed necroptosis of U937 cells induced by TNF-α and Q-VD-Oph (CellTiter-Glo). In kind it is cell-based. As to conditions: Celltiter-Glo survival rate. On the procedure:
The U937 cell strain which was used in the following Testing Examples was derived from ATCC, No.: CRL-1593.2, batch No.: 63479999, culture medium: RPMI-1640+10% FBS.
The compound to be tested was dissolved in DMSO, and diluted with DMSO to a series of gradient concentrations. The U937 cells were inoculated in a 384-well plate at 5000/well. The compound at respective concentration was added to each of the wells, and was mixed with the cells homogeneously. Human TNF-α and Q-VD-Oph were added simultaneously to induce programmed necroptosis of the cells. The cells were placed in the incubator at 37° C. and 5% CO2 for further culture of 48 h. Celltiter-Glo reagent was used for detection. After adequate pyrolysis reaction, the chemiluminescence readout value was recorded by a microplate reader. The survival rate was calculated from the detection results using the equation as follows: SR (%)=(RLU compound−RLU blank)/(RLU high control−RLU blank)×100%. The survival rate was plotted against the final concentration of respective compound using a 4-parameter fitting to calculate the inhibitory C50 of the compound against programmed necroptosis of cells induced by TNF-α.
(ATP-based viability assays read luminescence as a measure of living cells.)

The mark [1] stands for this setting: human TNF-α + Q-VD-Oph induced necroptosis, 48 h.

In general, IC50 refers to the midpoint of a concentration-inhibition curve.

Regarding `NC(=O)c1cc(N2CCC(C(=O)N3N=CCC3c3ccccc3)C3(CC3)C2)ncn1` (racemic) [Compound Z-43-2, 6-(8-(5-phenyl-4,5-dihydro-1H-pyrazole-1-carbonyl)-5-aza-spiro[2.5]oct-5-yl)pyrimidine-4-carboxamide], where the note is “Homo sapiens, U-937, 48 h”, the IC50 was determined as 45 nM.
On to `NC(=O)c1ccnc(N2CCC(C(=O)N3N=CCC3c3cc(F)cc(F)c3)C3(CC3)C2)n1` (racemic) [Compound Z-46-1, 2-(8-(5-(3,5-difluorophenyl)-4,5-dihydro-1H-pyrazole-1-carbonyl)-5-aza-spiro[2.5]oct-5-yl)pyrimidine-4-carboxamide], for which, for the setting “Homo sapiens, U-937, 48 h”, 4 nM corresponded to half-maximal inhibition (IC50).
For the compound `Nc1nc(N2CC3CC(C(=O)N4N=CCC4c4cncc(F)c4)CC3C2)ncc1F` (stereo not drawn) [Compound Z-30, (2-(4-amino-5-fluoropyrimidin-2-yl)octahydrocyclopenta[c]pyrrol-5-yl)(5-(5-fluoropyridin-3-yl)-4,5-dihydro-1H-pyrazol-1-yl) ketone], 449 nM corresponded to half-maximal inhibition (Homo sapiens, U-937, 48 h) (IC50).
Still for that read-out and setting: as for `CN(C)C(=O)c1cc(N2CC[C@H](C(=O)N3N=CC[C@H]3c3cc(F)cc(F)c3)CC23CC3)ncn1` (racemic) [Compound Z-69, 6-((S)-7-((S)-5-(3,5-difluorophenyl)-4,5-dihydro-1H-pyrazole-1-carbonyl)-4-aza-spiro[2.5]oct-4-yl)-N,N-dimethylpyrimidine-4-carboxamide], the figure is 127 nM.
Regarding `N#Cc1cc(N2CCC(C(=O)N3N=CCC3c3cc(F)ccc3F)C3(CC3)C2)ncn1` (racemic) [Compound Z-52-1, 6-(8-(5-(2,5-difluorophenyl)-4,5-dihydro-1H-pyrazole-1-carbonyl)-5-aza-spiro[2.5]oct-5-yl)pyrimidine-4-carbonitrile], the IC50 under setting [1] is 4 nM.
As to `Cc1nnc(N2CCC(C(=O)N3N=CCC3c3cc(F)cc(F)c3)C3(CC3)C2)o1` (stereo not drawn) [Compound Z-63-2, (5-(3,5-difluorophenyl)-4,5-dihydro-1H-pyrazol-1-yl)(5-(5-methyl-1,3,4-oxadizol-2-yl)-5-aza-spiro[2.5]octane-8-yl) ketone], under setting [1], the half-inhibitory concentration (IC50) came out at 21 nM.
For `COc1cc(N2CCC(C(=O)N3N=CCC3c3ccccc3)C3(CC3)C2)ncn1` (racemic) [Compound Z-40-1, (5-(6-methoxypyrimidin-4-yl)-5-aza-spiro[2.5]oct-8-yl)(5-phenyl-4,5-dihydro-1H-pyrazol-1-yl) ketone], under “Homo sapiens, U-937, 48 h”, the IC50 is 9 nM.
`N#Cc1cc(N2CCC(C(=O)N3CCC(c4cc(F)cc(F)c4)=N3)C3(CC3)C2)ncn1` (racemic) [Compound Z-25, 6-(8-(3-(3,5-difluorophenyl)-4,5-dihydro-1H-pyrazole-1-carbonyl)-5-aza-spiro[2.5]oct-5-yl)pyrimidine-4-carbonitrile]: the IC50 under setting [1] was 4 nM.
Consider `NC(=O)c1cc(N2CCC(C(=O)N3N=CCC3c3cc(F)ccc3F)C3(CC3)C2)ncn1` (racemic) [Compound Z-53-1, 6-(8-(5-(2,5-difluorophenyl)-4,5-dihydro-1H-pyrazole-1-carbonyl)-5-aza-spiro[2.5]oct-5-yl)pyrimidine-4-carboxamide], for which the 50% inhibitory concentration (IC50) under setting [1] was 26 nM.
The same measure, in the same setting: as for `N#Cc1cc(N2CCC(C(=O)N3N=CCC3c3cncc(F)c3)C3(CC3)C2)ncn1` (racemic) [Compound Z-48-2, 6-(8-(5-(5-fluoropyridin-3-yl)-4,5-dihydro-1H-pyrazole-1-carbonyl)-5-aza-spiro[2.5]oct-5-yl)pyrimidine-4-carbonitrile], the figure is 361 nM.
On to `N#Cc1cc(N2CC3CCC(C2)C3C(=O)N2N=CCC2c2ccccc2)ncn1` (single isomer, unassigned) [Compound Z-2, 6-(8-(5-phenyl-4,5-dihydro-1H-pyrazole-1-carbonyl)-3-azabicyclo[3.2.1]oct-3-yl)pyrimidine-4-carbonitrile], for which the concentration for half-maximal inhibition (IC50) under setting [1] was found to be 156 nM.
In the case of `N#Cc1cc(N2CCC(C(=O)N3N=CCC3c3cc(F)ccc3F)C3(CC3)C2)ncn1` (racemic) [Compound Z-52-2, 6-(8-(5-(2,5-difluorophenyl)-4,5-dihydro-1H-pyrazole-1-carbonyl)-5-aza-spiro[2.5]oct-5-yl)pyrimidine-4-carbonitrile], under setting [1], the IC50 amounted to 41 nM.
On to `N#Cc1cc(N2C[C@H]3C[C@@H](C(=O)N4N=CC[C@@H]4c4cc(F)cc(F)c4)C[C@H]3C2)ncn1` (single isomer, unassigned) [Compound Z-38-4], for which, under setting [1], the IC50 stood at 82 nM.
`NC(=O)c1cc(N2CCC(C(=O)N3N=CCC3c3cc(F)cc(F)c3)C3(CC3)C2)ncn1` (racemic) [Compound Z-44-2, 6-(8-(5-(3,5-difluorophenyl)-4,5-dihydro-1H-pyrazole-1-carbonyl)-5-aza-spiro[2.5]oct-5-yl)pyrimidine-4-carboxamide] showed an IC50 (Homo sapiens, U-937, 48 h) of 22 nM.
`NC(=O)c1cc(N2CC3CC(C(=O)N4N=CCC4c4cc(F)cc(F)c4)CC3C2)ncn1` (stereo not drawn) [Compound Z-17, 6-(5-(5-(3,5-difluorophenyl)-4,5-dihydro-1H-pyrazole-1-carbonyl)hexahydrocyclopenta[c]pyrrol-2(1H)-yl)pyrimidine-4-carboxamide] registered a half-maximal inhibitory concentration (IC50) (Homo sapiens, U-937, 48 h) of 248 nM.
Regarding `NC(=O)c1cc(N2CCC(C(=O)N3N=CCC3c3cncc(F)c3)CC23CC3)ncn1` (stereo not drawn) [Compound Z-67, 6-(7-(5-(5-fluoropyridin-3-yl)-4,5-dihydro-1H-pyrazole-1-carbonyl)-4-aza-spiro[2.5]oct-4-yl)pyrimidine-4-carboxamide], the IC50 (Homo sapiens, U-937, 48 h) came out at 115 nM.
Turning to `COc1nccc(N2C[C@H]3C[C@H](C(=O)N4N=CC[C@@H]4c4ccccc4)C[C@H]3C2)n1` (single isomer, unassigned) [Compound Z-37-2], the 50% inhibitory concentration (IC50) under setting [1] was determined as 22 nM.
Where the note is “Homo sapiens, U-937, 48 h”, `Nc1nc(N2CC3CC(C(=O)N4N=CCC4c4ccccc4)CC3C2)ncc1F` (stereo not drawn) [Compound Z-14, (2-(4-amino-5-fluoropyrimidin-2-yl)octahydrocyclopenta[c]pyrrol-5-yl)(5-phenyl-4,5-dihydro-1H-pyrazol-1-yl) ketone] came in with a half-maximal inhibitory concentration (IC50) of 165 nM.
Take `N#Cc1ccnc(N2C[C@H]3C[C@@H](C(=O)N4N=CC[C@@H]4c4cc(F)cc(F)c4)C[C@H]3C2)n1` (single isomer, unassigned) [Compound Z-32-4]: under setting [1], the half-maximal inhibitory concentration (IC50) is 61 nM.
Regarding `NC(=O)c1cc(N2CCC(C(=O)N3N=CCC3c3cc(F)cc(F)c3)CC23CC3)ncn1` (stereo not drawn) [Compound Z-64-1, 6-(7-(5-(3,5-difluorophenyl)-4,5-dihydro-1H-pyrazole-1-carbonyl)-4-aza-spiro[2.5]oct-4-yl)pyrimidine-4-carboxamide], under setting [1], the IC50 came out at 6 nM.
For `NC(=O)c1ccnc(N2C[C@H]3C[C@H](C(=O)N4N=CC[C@@H]4c4cc(F)ccc4F)C[C@H]3C2)n1` (single isomer, unassigned) [Compound Z-22-2], under “Homo sapiens, U-937, 48 h”, the IC50 is 48 nM.
Turning to `N#Cc1cc(N2C[C@H]3C[C@H](C(=O)N4N=CC[C@@H]4c4cc(F)cc(F)c4)C[C@H]3C2)ncn1` (single isomer, unassigned) [Compound Z-38-2], the IC50 under setting [1] came out at 27 nM.
`N#Cc1cc(N2CCC(C(=O)N3N=CCC3c3cncc(F)c3)CC23CC3)ncn1` (stereo not drawn) [Compound Z-65, 6-(7-(5-(5-fluoropyridin-3-yl)-4,5-dihydro-1H-pyrazole-1-carbonyl)-4-aza-spiro[2.5]oct-4-yl)pyrimidine-4-carbonitrile] had an IC50 (Homo sapiens, U-937, 48 h) of 52 nM.
With `NC(=O)c1cc(N2CCC(C(=O)N3N=CCC3c3cc(F)ccc3F)C3(CC3)C2)ncn1` (racemic) [Compound Z-53-2, 6-(8-(5-(2,5-difluorophenyl)-4,5-dihydro-1H-pyrazole-1-carbonyl)-5-aza-spiro[2.5]oct-5-yl)pyrimidine-4-carboxamide], the IC50 under setting [1] turned out to be 331 nM.
As to `COc1nccc(N2CCC(C(=O)N3N=CCC3c3ccccc3)C3(CC3)C2)n1` (racemic) [Compound Z-41-1, (5-(2-methoxypyrimidin-4-yl)-5-aza-spiro[2.5]oct-8-yl)(5-phenyl-4,5-dihydro-1H-pyrazol-1-yl) ketone], for the setting “Homo sapiens, U-937, 48 h”, the 50% inhibitory concentration (IC50) is 5 nM.
In the case of `NC(=O)c1ccnc(N2CC3CC(C(=O)N4N=CCC4c4cc(F)ccc4F)CC3C2)n1` (stereo not drawn) [Compound Z-22, 2-(5-(5-(2,5-difluorophenyl)-4,5-dihydro-1H-pyrazole-1-carbonyl)hexahydrocyclopenta [c]pyrrol-2(1H)-yl)pyrimidine-4-carboxamide], the IC50 (Homo sapiens, U-937, 48 h) came to 70 nM.
Consider `N#Cc1cc(N2CCC(C(=O)N3CCC(c4cc(F)cc(F)c4)=N3)C3(CC3)C2)ncn1` (racemic) [Compound Z-26, 6-(8-(3-(3,5-difluorophenyl)-4,5-dihydro-1H-pyrazole-1-carbonyl)-5-aza-spiro[2.5]oct-5-yl)pyrimidine-4-carbonitrile], for which the IC50 under setting [1] was determined as 244 nM.
In the case of `NC(=O)c1ccnc(N2CC3CC(C(=O)N4N=CCC4c4cc(F)cc(F)c4)CC3C2)n1` (stereo not drawn) [Compound Z-18, 2-(5-(5-(3,5-difluorophenyl)-4,5-dihydro-1H-pyrazole-1-carbonyl)hexahydrocyclopenta [c]pyrrol-2(1H)-yl)pyrimidine-4-carboxamide], for the setting “Homo sapiens, U-937, 48 h”, the IC50 is 94 nM.
In the case of `CNC(=O)c1cc(N2CCC(C(=O)N3N=CCC3c3cc(F)cc(F)c3)CC23CC3)ncn1` (stereo not drawn) [Compound Z-70-a, 6-(7-(5-(3,5-difluorophenyl)-4,5-dihydro-11H-pyrazole-1-carbonyl)-4-aza-spiro[2.5]oct-4-yl)-N-methylpyrimidine-4-carboxamide], the IC50 under setting [1] is 21 nM.
As to `Cc1nnc(N2CCC(C(=O)N3N=CCC3c3cc(F)cc(F)c3)C3(CC3)C2)o1` (stereo not drawn) [Compound Z-63-a, (5-(3,5-difluorophenyl)-4,5-dihydro-1H-pyrazol-1-yl)(5-(5-methyl-1,3,4-oxadizol-2-yl)-5-aza-spiro[2.5]octane-8-yl) ketone], the IC50 under setting [1] turned out to be 32 nM.
